Data as given in patent publication US20080261973A1, “Sulphonamidoaniline Derivatives Being Janus Kinase Inhibitors” (Novartis AG, priority 2005, published 2008).

melting point [°C]	SMILES
200 to 204	CS(=O)(=O)Nc1cccc(Nc2nc(NC3CN4CCC3CC4)c3nc[nH]c3n2)c1 (stereo not shown)
142 to 146	CS(=O)(=O)Nc1cccc(Nc2nc(NC3CCC3)c3nc[nH]c3n2)c1 [Example 1, N-[3-(6-Cyclobutylamino-9H-purin-2-ylamino)-phenyl]-methanesulfonamide]
161 to 165	CC(C)Nc1nc(Nc2cccc(NS(C)(=O)=O)c2)nc2[nH]cnc12 [Example 2, N-[3-(6-Isopropylamino-9H-purin-2-ylamino)-phenyl]-methanesulfonamide]
192 to 197	CS(=O)(=O)Nc1cccc(Nc2nc(N3CCC[C@H]3CO)c3nc[nH]c3n2)c1 [Example 3, N-{3-[6-((S)-2-Hydroxymethyl-pyrrolidin-1-yl)-9H-purin-2-ylamino]-phenyl}-methanesulfonamide]
205 to 210	CS(=O)(=O)Nc1cccc(Nc2nc(NCCc3c[nH]cn3)c3nc[nH]c3n2)c1 [Example 4, N-(3-{6-[2-(1H-Imidazol-4-yl)-ethylamino]-9H-purin-2-ylamino]-phenyl}-methanesulfonamide]
226 to 230	CC(C)N(CCNc1nc(Nc2cccc(NS(C)(=O)=O)c2)nc2[nH]cnc12)C(C)C [Example 5, N-(3-{6-[2-Diisopropylamino-ethylamino]-9H-purin-2-ylamino]-phenyl}-methanesulfonamide]
191 to 195	CN(C)CCNc1nc(Nc2cccc(NS(C)(=O)=O)c2)nc2[nH]cnc12 [Example 6, N-(3-{6-[2-Dimethylamino-ethylamino]-9H-purin-2-ylamino]-phenyl}-methanesulfonamide]
227 to 230	CS(=O)(=O)Nc1cccc(Nc2nc(N3CCN(c4ccncc4)CC3)c3nc[nH]c3n2)c1 [Example 7, N-{3-[6-(4-Pyridin-4-yl-piperazin-1-yl)-9H-purin-2-ylamino]-phenyl}-methanesulfonamide]
218 to 222	CN(CCC#N)c1nc(Nc2cccc(NS(C)(=O)=O)c2)nc2[nH]cnc12 [Example 8, N-(3-{6-[(2-Cyano-ethyl)-methyl-amino]-9H-purin-2-ylamino}-phenyl)-methanesulfonamide]
199 to 202	CS(=O)(=O)Nc1cccc(Nc2nc(NCCc3ccccn3)c3nc[nH]c3n2)c1 [Example 10, N-{3-[6-(2-Pyridin-2-yl-ethylamino)-9H-purin-2-ylamino]-phenyl}-methanesulfonamide]
164 to 168	CS(=O)(=O)Nc1cccc(Nc2nc(NCC(O)CO)c3nc[nH]c3n2)c1 (stereo not shown) [Example 11, N-{3-[6-(2,3-Dihydroxy-propylamino)-9H-purin-2-ylamino]-phenyl}-methanesulfonamide]
243 to 248	CS(=O)(=O)Nc1cccc(Nc2nc(N3CCC(O)C3)c3nc[nH]c3n2)c1 (stereo not shown) [Example 12, N-{3-[6-(3-Hydroxy-pyrrolidin-1-yl)-9H-purin-2-ylamino]-phenyl}-methanesulfonamide]
298 to 301	Cc1cn(-c2nc(Nc3cccc(NS(C)(=O)=O)c3)nc3[nH]cnc23)cn1 [Example 13, N-{3-[6-(4-Methyl-imidazol-1-yl)-9H-purin-2-ylamino]-phenyl}-methanesulfonamide]
164 to 168	CS(=O)(=O)Nc1cccc(Nc2nc(N3CCCC3)c3nc[nH]c3n2)c1 [Example 14, N-[3-(6-Pyrrolidin-1-yl-9H-purin-2-ylamino)-phenyl]-methanesulfonamide]
144 to 147	CS(=O)(=O)Nc1cccc(Nc2nc(NCc3cccnc3)c3nc[nH]c3n2)c1 [Example 15, N-(3-{6-[(Pyridin-3-ylmethyl)-amino]-9H-purin-2-ylamino}-phenyl)-methanesulfonamide]
215 to 218	CC(C)(CO)Nc1nc(Nc2cccc(NS(C)(=O)=O)c2)nc2[nH]cnc12 [Example 16, N-{3-[6-(2-Hydroxy-1,1-dimethyl-ethylamino)-9H-purin-2-ylamino]-phenyl}-methanesulfonamide]
163 to 166	CS(=O)(=O)Nc1cccc(Nc2nc(NCCO)c3nc[nH]c3n2)c1 [Example 17, N-{3-[6-(2-Hydroxy-ethylamino)-9H-purin-2-ylamino]-phenyl}-methanesulfonamide]
148 to 151	CN1CCN(c2nc(Nc3cccc(NS(C)(=O)=O)c3)nc3[nH]cnc23)CC1 [Example 18, N-{3-[6-(4-Methyl-piperazin-1-yl)-9H-purin-2-ylamino]-phenyl}-methanesulfonamide]
138 to 142	CN(C)c1ccc(CNc2nc(Nc3cccc(NS(C)(=O)=O)c3)nc3[nH]cnc23)cc1 [Example 20, N-{3-[6-(4-Dimethylamino-benzylamino)-9H-purin-2-ylamino]-phenyl}-methanesulfonamide]
147 to 150	CS(=O)(=O)Nc1cccc(Nc2nc(NCC3CCCCN3)c3nc[nH]c3n2)c1 (stereo not shown) [Example 21, N-(3-{6-[(Piperidin-2-ylmethyl)-amino]-9H-purin-2-ylamino}-phenyl)-methanesulfonamide]

melting point [°C]	SMILES
233 to 237	CS(=O)(=O)Nc1cccc(Nc2nc(NCCN3CCOCC3)c3nc[nH]c3n2)c1 [Example 22, N-{3-[6-(2-Morpholin-4-yl-ethylamino)-9H-purin-2-ylamino]-phenyl}-methanesulfonamide]
137 to 140	CS(=O)(=O)Nc1cccc(Nc2nc(OC3CCCC3)c3nc[nH]c3n2)c1 [Example 23, N-[3-(6-Cyclopentyloxy-9H-purin-2-ylamino)-phenyl]-methanesulfonamide]
169 to 172	CS(=O)(=O)Nc1cccc(Nc2nc(OCC3CCCCC3)c3nc[nH]c3n2)c1 [Example 24, N-[3-(6-Cyclohexylmethoxy-9H-purin-2-ylamino)-phenyl]-methanesulfonamide]
255 to 257	CS(=O)(=O)Nc1cccc(Nc2nc(OC3CCOC3)c3nc[nH]c3n2)c1 (stereo not shown) [Example 25, N-{3-[6-(Tetrahydro-furan-3-yloxy)-9H-purin-2-ylamino]-phenyl}-methanesulfonamide]
243 to 246	O=S(=O)(Nc1cccc(Nc2nc(NC3CCCC3)c3nc[nH]c3n2)c1)C(F)(F)F [Example 27, N-[3-(6-Cyclopentylamino-9H-purin-2-ylamino)-phenyl]-C,C,C-trifluoro-methanesulfonamide]
148 to 151	CN(C)c1cccc(CNc2nc(Nc3cccc(NS(C)(=O)=O)c3)nc3[nH]cnc23)c1 [Example 31, N-{3-[6-(3-Dimethylamino-benzylamino)-9H-purin-2-ylamino]-phenyl}-methanesulfonamide]
201 to 204	COCCOc1nc(Nc2cccc(NS(C)(=O)=O)c2)nc2[nH]cnc12 [Example 32, N-{3-[6-(2-Methoxy-ethoxy)-9H-purin-2-ylamino]-phenyl}-methanesulfonamide]
144 to 147	CC(C)N(C)c1nc(Nc2cccc(NS(C)(=O)=O)c2)nc2[nH]cnc12 [Example 36, N-{3-[6-(Isopropyl-methyl-amino)-9H-purin-2-ylamino]-phenyl}-methanesulfonamide]
234 to 239	CS(=O)(=O)Nc1cccc(Nc2nc(NC3CCCC3)c3nc[nH]c3n2)c1 [Example 37, N-[3-(6-Cyclopentylamino-9H-purin-2-ylamino)-phenyl]-methanesulfonamide]
150 to 153	C[C@H](Nc1nc(Nc2cccc(NS(C)(=O)=O)c2)nc2[nH]cnc12)C(C)(C)C [Example 38, N-{3-[6-((S)-1,2,2-Trimethyl-propylamino)-9H-purin-2-ylamino]-phenyl}-methanesulfonamide]
169 to 171	C[C@@H](Nc1nc(Nc2cccc(NS(C)(=O)=O)c2)nc2[nH]cnc12)C(C)(C)C [Example 39, N-{3-[6-((R)-1,2,2-Trimethyl-propylamino)-9H-purin-2-ylamino]-phenyl}-methanesulfonamide]
141 to 144	C[C@H](Nc1nc(Nc2cccc(NS(C)(=O)=O)c2)nc2[nH]cnc12)c1ccccc1 [Example 40, N-{3-[6-((S)-1-Phenyl-ethylamino)-9H-purin-2-ylamino]-phenyl}-methanesulfonamide]
136 to 139	C[C@@H](Nc1nc(Nc2cccc(NS(C)(=O)=O)c2)nc2[nH]cnc12)c1ccccc1 [Example 41, N-{3-[6-((R)-1-Phenyl-ethylamino)-9H-purin-2-ylamino]-phenyl}-methanesulfonamide]
203 to 205	CS(=O)(=O)Nc1cccc(Nc2nc(OC3CCCC3)c3cc[nH]c3n2)c1 [Example 43, N-[3-(4-Cyclopentyloxy-7H-pyrrolo[2,3-d]pyrimidin-2-ylamino)-phenyl]-methanesulfonamide]
261 to 265	CS(=O)(=O)Nc1ccc(Nc2nc(NC3CCCC3)c3nc[nH]c3n2)cc1 [Example 44, N-[4-(6-Cyclopentylamino-9H-purin-2-ylamino)-phenyl]-methanesulfonamide]
216 to 220	CS(=O)(=O)Nc1cccc(Nc2nc(NCc3ncc[nH]3)c3nc[nH]c3n2)c1 [Example 45, N-(3-{6-[(1H-Imidazol-2-ylmethyl)-amino]-9H-purin-2-ylamino}-phenyl)-methanesulfonamide]
136 to 139	CS(=O)(=O)Nc1cccc(Nc2nc(Oc3ccc(F)cc3)c3nc[nH]c3n2)c1 [Example 46, N-{3-[6-(4-Fluoro-phenoxy)-9H-purin-2-ylamino]-phenyl}-methanesulfonamide]
125 to 128	C[C@@H](Nc1nc(Nc2cccc(NS(C)(=O)=O)c2)nc2[nH]ccc12)C(C)(C)C [Example 49, N-{3-[4-((R)-1,2,2-Trimethyl-propylamino)-7H-pyrrolo[2,3-d]pyrimidin-2-ylamino]-phenyl}-methanesulfonamide]
270 to 273	CC(C)(C)CNc1nc(Nc2cccc(NS(C)(=O)=O)c2)nc2[nH]cnc12 [Example 50, N-{3-[6-(2,2-Dimethyl-propylamino)-9H-purin-2-ylamino]-phenyl}-methanesulfonamide]
128 to 132	C[C@H](Nc1nc(Nc2cccc(NS(C)(=O)=O)c2)nc2[nH]ccc12)C(C)(C)C [Example 51, N-{3-[4-((S)-1,2,2-Trimethyl-propylamino)-7H-pyrrolo[2,3-d]pyrimidin-2-ylamino]-phenyl}-methanesulfonamide]
